# Patent US8067628B2 (priority 2008, dated 2011)
# Where two headings read alike, the source gives them in different places.
# Experiments:
# [1] = test system: line K562 cells of human erythroblast leukemia; test: Apoptotic activity, caspase-3/-7 FLICA (FAM-DEVD-FMK) flow cytometry; assay type: cell-based; details: incubation 75 hours
# Procedure: A method for determining activity of caspases is based on the use of fluorochromic inhibitors of caspases (FLICA). These inhibitors are capable of penetrating into a cell while not being cytotoxic. Within the cell FLICA-inhibitor is covalently bound to active caspase.
# The freeze-dried reagent FAM-DEVD-FMK for determining caspase-3 and caspase-7 was experimentally used to test apoptotic cells. When FAM-DEVD-FMK is added to a cellular population of cells, it penetrates into each cell wherein covalent binding thereof to a large subunit of an active caspase heterodimer occurs and thus, it inhibits enzymatic activity. The reagent covalently bound to the enzyme remains inside the cell. […]
# Upon termination of incubation term, the cells were centrifuged for 5 minutes at 1,200 rpm at room temperature (RT). […] Sample aliquots of induced and non-induced cells were taken, 2 μl reagent propidium iodide (PI) ready for use were added and the mixture was incubated at RT for 10 minutes to stain dead cells.
# Fluorescence of all cell specimens was analyzed on a liquid citometer Backton Dikenson Fascaliber using a laser with 488 nm wavelength. […] In a left lower quadrant live cells were determined; in a right lower quadrant positive FLICA cells (FLICA+) were determined; in a left upper quadrant stained PI cells were determined, and in a right upper quadrant stained PI and FLICA+ cells were determined. […]
# [2] = assay type: physicochemical
# Procedure: Distilled water used in the synthesis required preliminary preparation to remove oxygen dissolved therein. To this end, a flow of inert gas (argon or nitrogen) was passed through a flask with distilled water for 30 minutes. 0.84 grams (3 mmol) iron sulphate heptahydrate were dissolved in 12 ml prepared distilled water. To this solution, 0.40 g (3.5 mmol) cystamine hydrochloride dissolved in 8 ml water was added to this solution. Nitrogen monoxide flow prepared according to the technique [Yu. V. Karyakin and I. I. Angeov. Chistiye khimicheskiye veshchestva (Pure chemical substances), Moscow: Khimiya publishing house, 1974, 23] was passed through the prepared solution for 1 to 1.5 hours at ˜40° C. until crystals were formed in the solution. Reaction mixture was then allowed to stand at 6 to 8° C. for 15 to 20 hrs; a formed brown-red fine crystalline precipitate was filtered off and dried in air for 24 hours. Yield was […] (16.5%).
# Di-μ-penicillamine-tetranitrosyl di-iron sulphate (Fe2S3N6C10H32O17) (II) was prepared by reacting iron sulphate (II) with D-penicillamine in a ratio 1:3. The reaction was carried out using a standard vacuum line and Shlenk's technology under nitrogen at room temperature. Oxygen was preliminary removed from water using the method of triplicate freezing and pumping off under vacuum. […]
# [3] = NO-donor activity, sensor electrode amiNO-700 in water; details: aerobic aqueous solutions; for spontaneous NO generation: 25° C., no chemo-, photo- or enzymatic activation; for duration of NO release: compared with binuclear nitrosyl iron complexes with aromatic thiolyls
# Procedure: The sensor electrode “amiNO-700” of the system “inNO Nitric Oxide Measuring System” (Innovative Instruments, Inc., Tampa, Fla., USA) was used to determine NO generated by the complexes I and II in water. NO concentration was recorded for ˜1,600 seconds (with a step of 0.2 seconds) with concentration of NO donor (0.1 μmol). A standard aqueous solution of NaNO2 (100 μmol) to which a mixture of 0.12M KCl and 2 ml 1M H2SO4 in 18 ml water was added was used to calibrate the electrochemical sensor. All the experiments were carried out in aerobic solutions at temperature 25° C. pH of solutions was measured using the membrane pH-meter “HI 8314” (HANNA Instruments, Germany).
# [4] = test system: line K562 human erythroblastic leukemia and A549 non-small cell lung cancer cells; test: Cytotoxicity, MTT-test on human cancer cells in vitro; assay type: cell-based
# Procedure: Cells of line K562 human erythroblastic leukemia and A549 non-small cell lung cancer were used as the study object. The cells were grown in the RMPI1640 medium comprising 10% fetal bovine serum at 37° C., 5% CO2 and 100% humidity.
# The cytotoxic activity testing was carried out by the standard MTT-test using 96-well plates. Seeding density of cells was 5,000 cells in a well. The cells K562 and A549 were incubated with the complexes I and II at concentrations 1 μM, 10 μM or 100 μM for 72 hours.
# MTT-test is based on the capability of dehydrogenases of live cells to reduce unstained MTT-reagent to the blue crystals of formazan crystals soluble in dimethylsulfoxide (DMSO). The optic absorption of stained DMSO solutions was measured on an automated counter. The cytotoxic activity was assessed in percent by the survival of the cells and calculated according to the formula: (mean value of optic absorption in test samples/mean absorption in the control)×100. IC50 was determined by a “dose-effect” curve.
Substance,cells in apoptosis [1],initiation of caspase 3 and 7 activity / induction of apoptosis ([1]; concentration 50 μl),stability of polycrystals in air [2],spontaneous NO generation [3],duration of NO release [3],IC50 [4],stability of product in the absence of inert atmosphere [2],"IC50 ([4]; MTT-test, 72 hours, K562 and A549 cells (cell line of the value not stated), read-out: IC50 (cytotoxic activity, cell survival))"
Di-μ-cystamine tetranitrosyl di-iron sulphate [complex I],77%,exhibited capability of initiating caspase 3 and 7 activity,remain stable in air at room temperature for a rather long time,generate NO in aerobic aqueous solutions,prolonged release of NQ,50 µM,–,–
Di-μ-penicillamine-tetranitrosyl di-iron sulphate [complex II],–,–,–,generate NO in aerobic aqueous solutions,prolonged release of NQ,–,stable in the absence of inert atmosphere for a long time,100 µM
